Assay [1] deals with isolated rat soleus muscle. The experiment in a line: Ex vivo model of residual muscle force (fatigue) in isolated rat soleus muscle after sodium overload by high NaCl (200 mM) buffer. Also on record: species or system rat (female Sprague Dawley). The following applies: for residual contractile force compared with baseline control: drug concentrations of 30 to 500 nM, added 10 min before 30 min in 200 mM NaCl buffer, then stimulation in physiological NaCl buffer, 30 °C, pH 7.4, controls without inhibitor 10% to 20%; for effect on rat soleus muscle force decline: high NaCl (200 mM) protocol, result in words. The source says:
The claim of this patent is that NHE1 inhibitors can improve disturbed body function and symptoms of ME/CFS, as an example of diseases associated with chronic fatigue (DACF). Muscular fatigue and loss of force (e.g., loss of handgrip strength) is a hallmark in ME/CFS patients. A main target of NHE1 inhibition is the skeletal muscle whose energetic function is deeply disturbed in ME/CFS and which is presumed to be very important in the symptomatology of ME/CFS. NHE1 activity plays a key role in the development of the disturbances by a rise in intramuscular sodium that finally leads to calcium overload. The latter causes a deep functional energetic disturbance or damage. The isolated rat muscle either soleus muscle or extensor digitorum longus muscle is a well-characterized and well-validated model for the study of the function of ion exchangers. The isolated rat soleus muscle is particularly appropriate for experiments ex vivo as it is very thin so that there is no need for blood supply. […] In this experimental setting, a high NaCl concentration buffer causes sodium influx to disturb and decrease excitability and to disturb calcium homeostasis to subsequently reduce muscle force. Inhibition of the NHE1, which exchanges one proton for the uptake of one sodium ion, reduces sodium entry and overload. Prevention or diminution of a loss of muscular force in this procedure indicates effective inhibition of NHE1 by a test compound with the described mode of action of NHE1-inhibition.
The decline in force in the soleus muscle can be considered as muscular fatigue and related to the loss of hand grip muscular strength in ME/CFS patients. The described ex vivo model is suited for testing the effect of NHE1 inhibitors and in particular their effect on force generation disturbed by mechanisms that worsen excitability or the energetic situation or calcium homeostasis via the sodium-calcium-exchanger. High NaCl in a buffer (200 mM) is used to cause intracellular sodium loading leading to a decline in contractile force.
The resulting decline in muscular force is considered as muscular fatigue. In the absence of electrical stimulation avoiding sodium entry by sodium channels the sodium influx during high NaCl exposure is due to the NHE1. Inhibition of NHE1 can prevent sodium overload and a decline in muscular force and fatigue.
Muscle preparation and incubation: Female Sprague Dawley rats of 5 weeks of age are used. After isoflurane anesthesia and cervical dislocation the intact soleus muscles of the animals is dissected. […]
Force measurement: The experimental set-up for force measurements allows for the simultaneous recordings from 6 muscles in separate incubation chambers in parallel. Force is recorded and stored with a Notocord HEM data acquisition system. […]

Assay [2] deals with myocardial infarction and dystrophic cardiomyopathy including DMD. The following applies: animal models; Ghaleh et al. doi: 10.1016/j.ijcard.2020.03.031; cited from earlier work.
A further assay concerns Ca2^+ and Na+ overload. The following applies: preclinical; Chahine et al. doi: 10.1016/j.yjmcc.2005.01.003; Bkaily and Jacques doi: 10.1139/cjpp-2017-0265; cited from earlier work.

Consider `CC(C)c1ccc(C(=O)NC(=N)N)cc1S(C)(=O)=O` [Cariporide], for which, in assay [1], the “residual contractile force compared with baseline control” value is listed as 50-70% and the “effect on rat soleus muscle force decline” value is on record as “diminished the loss of force”. The cardioprotective effects result in assay [2] is reported as “cardioprotective effects”. In addition, the “effect in preventing the deleterious effects of Ca2^+ and Na+ overload” value in the assay with Ca2^+ and Na+ overload is listed as “beneficial effects”.
For `Cc1cc(S(C)(=O)=O)c(S(C)(=O)=O)cc1C(=O)N=C(N)N` [Rimeporide, N-(4,5-bismethanesulfonyl-2-methylbenzoyl)guanidine], in assay [1], the “residual contractile force compared with baseline control” value is on record as 50-70% and the “effect on rat soleus muscle force decline” value was “diminished the loss of force”. The cardioprotective effects entry in assay [2] was “cardioprotective effects”. Also, the “effect in preventing the deleterious effects of Ca2^+ and Na+ overload” value in the assay with Ca2^+ and Na+ overload was “beneficial effects”.
